Experimental data from ChEMBL document CHEMBL1147075, “Immunotherapeutic activity of a conjugate of a Toll-like receptor 7 ligand” (Proc Natl Acad Sci U S A, 2007).
Activity calls are given as the source filed them. The rule behind the calls is not given here.

Legend:
BMDM = assay: Induction of cytokine release in mouse BMDM cells at 0.01 to 10 uM after 24 hrs by ELISA; assay type: functional, cell-based
Bacillus anthracis = assay: Protection against Bacillus anthracis infection in A/J mouse; assay type: functional, organism-based

For `COCCOc1nc(N)c2nc(O)n(Cc3ccc(C=O)cc3)c2n1`, the Activity (BMDM) was “Active” and the Activity (Bacillus anthracis) was “inactive”.
